Data published in paper PMC12526058, “1,2,4-Thiadiazolidin-3,5-Diones as Inhibitors of Cysteine Proteases” (Molecules, 2025).
“And” between values parts separate entries of the source, which are not always exact repeats. Equal values may be shown once. “Also recorded” adds a separate entry of the source.

How the values were obtained:
Papain [1] = target: T1, Papain (Carica papaya, UniProt P00784); assay: Papain inhibition, IC50 (Z-Phe-Arg-MCA substrate, 10 min pre-incubation); type: biochemical; settings: for IC50 / IC50 for inhibition of Papain: 30 °C, 10 min pre-incubation, 100 mM sodium phosphate, 1 mM EDTA, pH 6.0, Z-Phe-Arg-MCA, Papain 120 nM
T1 construct: purchased Sigma
Method: Papain and Bromelain were purchased from Sigma. Papain was previously activated at 25 °C in a degassed 100 mM sodium phosphate, 1 mM EDTA, pH 6.0 buffer containing 5 mM DTT (dithiothreitol) for 10 min, as previously described. To remove the DTT excess, a 1 mL solution of activated Papain was loaded on a 3 mL syringe with 1 mL Sephadex G25 size exclusion resin (Amersham Pharmacia, Amersham, UK). The enzyme was eluted with the same assay buffer, and its activity was monitored using Z-Phe-Arg-MCA as the substrate.
The activities of Cathepsin L and Papain were assessed using Z-Phe-Arg-MCA.

SARS-CoV-2 3CLpro = SARS-CoV-2 3CLpro (Severe acute respiratory syndrome coronavirus 2, UniProt P0DTD1); assay: 3CLpro inhibition, IC50 (FRET substrate, 10 min pre-incubation); type: biochemical
Papain [2] = target: T1, Papain; assay: Papain inactivation kinetics, two-step irreversible mechanism; type: biochemical; settings: Papain 48nM, Z-FR-MCA 1.5µM, 100 mM sodium phosphate, 1 mM EDTA, pH 6.0; for KI (inactivation): read-out: Ki, Papain inactivation (Ki = k-3/k3)
Source text: (§1) This is confirmed by kinetic analyses of the reaction of THIA-3 with Papain, used as a diagnostic method as previously reported. The kinetic constant values of the reaction of the ten THIA compounds with Papain, for the reaction paths shown below, are reported in Table S2.
Table S2. Values of the kinetic constants for Papain inactivation kinetics analyses by all THIA compounds obtained for a two-step irreversible mechanism (see below the reaction paths) as reported in the reference (31)
Conditions: Papain 48nM, substrate Z-FR-MCA 1.5µM. Buffer: 100 mM sodium phosphate, 1 mM EDTA, pH 6.0. The kinetic constants for the reaction are indicated in the scheme below.
Ki represents the relation: Ki = k-3/k3, which is the dissociation constant describing the binding affinity between the inhibitor and the enzyme. In contrast, the IC50 is the concentration of inhibitor required to reduce enzymatic activity to half of its uninhibited value. The IC50 is less precise than Ki and depends on measurement conditions and the mechanism of inhibition. […] It is noteworthy that kinetic constants for Papain inactivation by THIA compounds are consistent with a two-step irreversible mechanism.

Papain [3] = target: T1, Papain; assay: Type of inhibition (time dependence, reversibility) on Papain; type: biochemical; settings: reverted by reducing agents
Method: (§2) Initially, we identified the type of inhibition in each protease using THIA-3 as a reference compound for all the tested THIA derivatives. […] Due to the susceptibility of the THIA derivatives to reducing agents, such as Cys or DTT (Figure S4), the proteases Papain, Cathepsin L, 3CLpro, and PLpro were separately pre-activated by 5 mM DTT during 30 min, which was removed by gel filtration, forming stock solutions of the activated proteases, and then kept at −20 °C under an N2 atmosphere for future use.
as §1
(§3) Figure S3. […] The assay has been performed following the procedure described in Reference ACS Omega 6 (2021) 16584−16591. https://doi.org/10.1021/acsomega.1c01797.
Figure S4. Inhibition of Papain by THIA-3 and its reversibility by cysteine (Cys) as a reducing agent. Z-FR-MCA as substrate, Papain activity was assessed before and after pre-incubation with 5µM THIA-3 for 5 min, and then assayed after Cys addition (10 µM).

Cathepsin L = target: T2, Cathepsin L (Homo sapiens, UniProt P07711); assay: Type of inhibition on Cathepsin L; type: biochemical
T2 construct: made in house; host or cells: Pichia pastoris
Method: as §2

3CLpro = 3CLpro (Severe acute respiratory syndrome coronavirus 2, UniProt P0DTD1); assay: Type of inhibition (time dependence, reversibility) on 3CLpro; type: biochemical, SARS-CoV-2; settings: reverted by reducing agents
Method: as §2, §1, §3

PLpro [4] = target: PLpro (Severe acute respiratory syndrome coronavirus 2, UniProt P0DTD1); assay: Type of inhibition (reversibility assay) on PLpro; type: biochemical, SARS-CoV-2
[5] = Stability of THIA derivatives in organic solvents and buffers (LC-MS); type: physicochemical; settings: for Stability of 10 mM stock solutions in DMSO stored at −20 °C: 10 mM in DMSO, freezer −20 °C, LC-MS
Method: We chose THIA-3 as a reference due to its simplicity in larger-scale synthesis to evaluate the stability of this class of compounds. […] In the Tris buffer, decomposition to 1,3-diphenylurea was very slow, with some decomposition only apparent after 12 h of incubation (Figure S1B). We also evaluated the stability of 10 mM stock solutions of the ten THIAs in DMSO stored in a freezer (−20 °C) by Liquid Chromatography Mass Spectrometry (LC-MS). […] DMSO is also considered a reagent, but we have not explored the decomposition of THIA compounds in DMSO further, as it falls outside the scope of this work.
Figure S1. (A) - Stability THIA-3 in DMSO with 1% H2O. (B)- Stability of THIA-3 in water,100 mM sodium phosphate, Tris buffer pH 7.4, with 1 to 40% ACN.
Figure S2. Stability of THIAs in dimethyl sulfoxide and stored at -20 °C

SARS-CoV-2 PLpro = SARS-CoV-2 PLpro (Severe acute respiratory syndrome coronavirus 2, UniProt P0DTD1); assay: biochemical
PLpro [6] = settings: noncovalent, binding to S4–S3 subsites; read-out: IC50 for inhibition of PLpro; cited from earlier work
Papain [7] = target: T1, Papain; parameters: method as in PMID 21329361; settings: cited from earlier work
Bromelain = Bromelain (Ananas comosus, UniProt P14518); parameters: method as in PMID 33177555; settings: cited from earlier work
[8] = IC50 for inhibition of 3CLpro, 30 °C, 10 min pre-incubation, 50 mM Tris, 1 mM EDTA, pH 7.5, Abz-[…](Dnp)-NH2, 3CLpro 27 nM
[9] = IC50 for inhibition of 3CLpro (bound), unit inferred

T1 sequence (P00784 134-345): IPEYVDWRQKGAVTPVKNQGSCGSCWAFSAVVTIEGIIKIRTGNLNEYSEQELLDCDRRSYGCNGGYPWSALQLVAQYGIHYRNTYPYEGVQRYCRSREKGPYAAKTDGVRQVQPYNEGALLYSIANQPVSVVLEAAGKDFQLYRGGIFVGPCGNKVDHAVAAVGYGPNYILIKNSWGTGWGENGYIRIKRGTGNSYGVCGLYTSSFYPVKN
T2 sequence (P07711 114-333): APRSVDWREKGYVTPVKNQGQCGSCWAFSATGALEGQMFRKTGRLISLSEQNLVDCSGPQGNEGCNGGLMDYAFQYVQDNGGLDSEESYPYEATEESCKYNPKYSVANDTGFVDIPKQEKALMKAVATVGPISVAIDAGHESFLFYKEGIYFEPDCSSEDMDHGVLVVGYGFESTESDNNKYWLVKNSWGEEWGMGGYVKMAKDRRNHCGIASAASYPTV
Sequence of Bromelain (P14518 whole entry): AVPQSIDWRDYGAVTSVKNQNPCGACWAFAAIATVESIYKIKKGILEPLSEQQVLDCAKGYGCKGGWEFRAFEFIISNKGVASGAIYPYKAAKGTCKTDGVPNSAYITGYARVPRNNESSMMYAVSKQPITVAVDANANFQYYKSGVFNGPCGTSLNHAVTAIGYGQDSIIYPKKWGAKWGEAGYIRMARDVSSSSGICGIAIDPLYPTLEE

Row | SMILES | IC50 (Papain [1]) | IC50 (SARS-CoV-2 3CLpro; [8]) | k3, Papain inactivation (Papain [2]) | k4, Papain inactivation (Papain [2]) | KI (inactivation) (Papain [2]) | IC50 (SARS-CoV-2 PLpro) | IC50 for inhibition of Papain (Papain [1]) | Stability of 10 mM stock solutions in DMSO stored at −20 °C [5] | further results
1 | O=c1sn(-c2ccccc2)c(=O)n1-c1ccccc1 [THIA-3] | 140 ± 20 nM | 110 ± 10 nM | 19.7 µM/s | 0.008 s⁻¹ | 170 nM | 8500 ± 200 nM |  |  | Type of inhibition of Papain (Papain [3]): covalent irreversible inhibition; also recorded: two-step covalent enzyme inactivation mechanism; Type of inhibition of Cathepsin L (Cathepsin L): irreversible inhibition; Type of inhibition of 3CLpro (3CLpro): covalent irreversible inhibition; also recorded: two-step covalent enzyme inactivation mechanism; Type of inhibition of PLpro (PLpro [4]): reversible inhibition; Stability in DMSO with 1% water [5]: decomposed to 1,3-diphenylurea; Stability in acetonitrile (ACN) [5]: remained stable
3 | O=c1sn(-c2ccccc2)c(=O)n1Cc1ccccc1 [THIA-1] | 2160 ± 90 nM | 130 ± 10 nM | 19.9 µM/s | 0.013 s⁻¹ | 260 nM | 25000 ± 3000 nM | in the μM range | the most resistant | 
4 | O=c1sn(-c2ccc(F)cc2)c(=O)n1-c1ccccc1 [THIA-10] | 10 nM and 11 nM | 20 ± 10 nM | 13.7 µM/s | 0.022 s⁻¹ | 310 nM | 10000 ± 1000 nM |  | the most resistant; also recorded: THIA-10 No degradation detected | IC50 (SARS-CoV-2 3CLpro; [9]): < 50 nM; Type of inhibition of Papain (Papain [3]): two-step covalent enzyme inactivation mechanism
5 | COc1ccc(-n2sc(=O)n(-c3ccc(Cl)cc3)c2=O)cc1 [THIA-7] | 130 ± 10 nM | 10 ± 10 nM | 17.3 µM/s | 0.009 s⁻¹ | 160 nM | 14400 ± 700 nM | in the nanomolar range | the most resistant | IC50 (SARS-CoV-2 3CLpro; [9]): < 50 nM
6 | Cc1ccc(-n2sc(=O)n(Cc3ccc(F)cc3)c2=O)cc1 [CCG-50014, 4-(4-fluorobenzyl)-2-p-tolyl-1,2,4-thiadiazolidine-3,5-dione] |  |  |  |  |  |  |  |  | Inhibition of Papain (Papain [7]): complete absence of papain inhibition; also recorded: failed to inhibit Papain
7 | Cc1ccc(-n2sc(=O)n(-c3ccccc3)c2=O)cc1 [THIA-9] | 110 ± 10 nM | 160 ± 80 nM | 14.5 µM/s | 0.024 s⁻¹ | 340 nM | 10400 ± 400 nM |  |  | 
8 | COc1ccc(-n2sc(=O)n(-c3ccc(OC)cc3)c2=O)cc1 [THIA-6] | 10 ± 1 nM | 30 ± 10 nM | 14.5 µM/s | 0.019 s⁻¹ | 270 nM | 12500 ± 900 nM |  |  | Fold higher Papain inhibitory potency than THIA-4 (Papain [1]; ratio of Papain IC50 values): sevenfold; Fold increase in Papain inhibitory potency compared to THIA-8 (Papain [1]; ratio of Papain IC50 values): 240 fold; IC50 (SARS-CoV-2 3CLpro; unit inferred): < 50 nM
9 | COc1ccc(-n2sc(=O)n(C3CCCCC3)c2=O)cc1 [THIA-8] | 2400 ± 100 nM | 190 ± 10 nM | 109.9 µM/s | 0.016 s⁻¹ | 680 nM | 4200 ± 100 nM | in the μM range | the most resistant | 
10 | COc1ccc(-n2sc(=O)n(Cc3ccccc3)c2=O)cc1 [THIA-2] | 1280 ± 70 nM | 120 ± 10 nM | 24.6 µM/s | 0.012 s⁻¹ | 320 nM | 8300 ± 800 nM | in the μM range | the most resistant | 
11 | COc1ccc(-n2sc(=O)n(-c3ccc(C)cc3)c2=O)cc1 [THIA-5] | 102 ± 3 nM | 90 ± 10 nM | 12.3 µM/s | 0.021 s⁻¹ | 270 nM | 3900 ± 700 nM |  |  | 
12 | COc1ccc(-n2sc(=O)n(-c3ccccc3)c2=O)cc1 [THIA-4] | 70 nM and 71 nM | 130 ± 10 nM | 4.9 µM/s | 0.015 s⁻¹ | 80 nM | 7600 ± 900 nM |  |  | 
13 | CC(C)C[C@H](NC(=O)[C@H]1O[C@@H]1C(=O)O)C(=O)NCCCCN=C(N)N (relative stereo) [E-64, L-trans-Epoxysuccinyl-leucylamido (4-guanidino)butane] |  |  |  |  |  |  |  |  | Inhibition of Bromelain (Bromelain): poor inhibition
